Test results as given in patent US20240116877A1, “KIT KINASE INHIBITORS AND METHODS OF USE THEREOF” (Deciphera Pharmaceuticals, LLC, priority 2021, published 2024).
Like-named read-outs stand apart in the source and are kept apart here.

Key:
[1] = system: GIST 430 cells; test: GIST 430 Cell Proliferation Assay (resazurin); format: cell-based; details: Homo sapiens; GIST430 cell proliferation
Outline: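 Five thousand cells per well were exposed to serially diluted compound in complete growth medium for 115 h at 37 degrees Celsius, 5% CO2. Resazurin was then added for a further 5 h, fluorescence read at 540 nm excitation/600 nm emission, and IC50 values calculated.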

[2] = biological target: c-KIT kinase (uKIT) (Homo sapiens (Human), UniProt P10721); test: Biochemical Assay for uKIT (coupled pyruvate kinase/lactate dehydrogenase assay); details: Inhibition of biochemical activity of uKIT kinase; 1 mM ATP
c-KIT kinase (uKIT), sequence (P10721 other isoform, or with tags, fused parts or gaps): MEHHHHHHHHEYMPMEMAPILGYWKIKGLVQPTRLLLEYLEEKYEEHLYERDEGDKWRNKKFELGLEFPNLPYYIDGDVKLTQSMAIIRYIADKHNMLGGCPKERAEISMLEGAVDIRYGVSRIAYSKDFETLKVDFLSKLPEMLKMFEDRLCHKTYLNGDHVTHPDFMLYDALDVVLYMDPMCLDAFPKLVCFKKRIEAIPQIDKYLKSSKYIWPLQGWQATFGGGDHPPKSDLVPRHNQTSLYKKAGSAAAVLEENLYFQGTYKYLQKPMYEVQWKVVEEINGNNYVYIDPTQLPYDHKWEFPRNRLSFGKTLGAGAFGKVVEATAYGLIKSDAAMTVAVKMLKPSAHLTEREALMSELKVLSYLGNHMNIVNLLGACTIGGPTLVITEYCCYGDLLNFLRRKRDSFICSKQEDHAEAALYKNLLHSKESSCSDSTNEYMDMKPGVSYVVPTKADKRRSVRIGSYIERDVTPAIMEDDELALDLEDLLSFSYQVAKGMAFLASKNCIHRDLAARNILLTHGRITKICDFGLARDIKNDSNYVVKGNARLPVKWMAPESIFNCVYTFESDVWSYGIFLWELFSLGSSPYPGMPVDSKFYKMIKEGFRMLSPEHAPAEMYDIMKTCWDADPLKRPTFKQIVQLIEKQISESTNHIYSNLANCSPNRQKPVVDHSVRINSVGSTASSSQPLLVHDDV
Outline: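 IC50 from percent inhibition of reaction rate over 2-3 h, relative to no-compound and known-inhibitor controls. KIT enzyme (16 nM or 4.36 nM, two sequences) ran with 1 mM ATP and 0.7 mg/mL PE4Y in Tris pH 7.5, 30° C; ATP turnover coupled to NADH loss at 340 nm.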

[3] = system: Ba/F3 KIT mutant cells; test: Ba/F3 mutant KIT Cell Proliferation Assays (resazurin); format: cell-based; details: Mus musculus, BaF3
Outline: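 IC50 values come from resazurin fluorescence (ex 540, em 600) after 5 h dye exposure, added as a 440 μM solution. Cells were IL-3-independent Ba/F3 expressing mutant KIT from a lentiviral vector, puromycin-selected.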

[4] = Ba/F3 KIT AYdup mutant cell proliferation, read-out: AYdup IC50
[5] = Ba/F3 KIT AYdup-D816G mutant cell proliferation, read-out: AYdup-D816G IC50
[6] = Ba/F3 KIT AYdup-V654A mutant cell proliferation, read-out: AYdup-V654A IC50
[7] = Ba/F3 KIT exon11del-V654A mutant cell proliferation, read-out: exon11del-V654A IC50
[8] = Ba/F3 KIT exon11del-Y823D mutant cell proliferation, read-out: exon11del-Y823D IC50

Structure (SMILES) | IC50 [2] [nM] | IC50 [3, 4] [nM] | IC50 [3, 5] [nM] | IC50 [3, 6] [nM] | IC50 [3, 7] [nM] | IC50 [3, 8] [nM] | IC50 [1] [nM]
COCCOc1cc(F)c2c(Nc3ccc(NC(=O)NCCOC(F)(F)F)cc3)ncnc2c1 [Example 42] | ≤ 10 | ≤ 10 | 10 to 100 | 10 to 100 | 10 to 100 | 10 to 100 | 10 to 100
COCCOc1cc(F)c2c(Nc3ccc(NC(=O)NC4CC(C)(C)C4)cc3)ncnc2c1 [Example 8] | ≤ 10 | ≤ 10 | 10 to 100 | 10 to 100 | 10 to 100 | 100 to 1000 | 10 to 100
COCCOc1cc(F)c2c(Nc3ccc(NC(=O)OCCC(C)(C)C#N)cc3)ncnc2c1 [Example 46] | ≤ 10 | ≤ 10 | 10 to 100 | 100 to 1000 | 10 to 100 | 100 to 1000 | 10 to 100
COCCOc1cc(F)c2c(Nc3ccc(NC(=O)C4(C(=O)NCC(C)(C)C)CC4)cc3)ncnc2c1 [Example 44] | 10 to 100 | 10 to 100 | 100 to 1000 | 100 to 1000 | 100 to 1000 | 100 to 1000 | 100 to 1000
COCCOc1cc(F)c2c(Nc3ccc(NC(=O)CC(=O)NCC(C)(C)C)cc3)ncnc2c1 [Example 4, N1-(4-((5-fluoro-7-(2-methoxyethoxy)quinazolin-4-yl)amino)phenyl)-N3-neopentylmalonamide] | 10 to 100 | 10 to 100 | 10 to 100 | 10 to 100 | 10 to 100 | 10 to 100 | ≤ 10
CC(C)Oc1cc(F)c2c(Nc3ccc(NC(=O)NCCC(C)(C)F)cc3)ncnc2c1 [Example 6, 1-(3-fluoro-3-methylbutyl)-3-(4-((5-fluoro-7-isopropoxyquinazolin-4-yl)amino)phenyl)urea] | ≤ 10 |  |  | 100 to 1000 | ≤ 10 | 100 to 1000 | 10 to 100
COCCOc1cc(F)c2c(Nc3ccc(NC(=O)NCCC4CC4)cc3)ncnc2c1 [Example 19] | ≤ 10 | ≤ 10 | ≤ 10 | ≤ 10 | 10 to 100 | 100 to 1000 | 10 to 100

Second part, led by results:

IC50 [2] [nM] | IC50 [3, 4] [nM] | IC50 [3, 5] [nM] | IC50 [3, 6] [nM] | IC50 [3, 7] [nM] | IC50 [3, 8] [nM] | Structure (SMILES) | IC50 [1] [nM]
≤ 10 | ≤ 10 | 10 to 100 | 100 to 1000 | 10 to 100 | 100 to 1000 | COCCOc1cc(F)c2c(Nc3ccc(NC(=O)COCC(C)C)cc3)ncnc2c1 [Example 49] | 10 to 100
10 to 100 |  |  | 100 to 1000 | 10 to 100 | > 1000 | COCCOc1cc(F)c2c(Nc3ccc(NC(=O)N4CCC(C(C)(C)C)C4)cc3)ncnc2c1 (stereo not shown) [Example 122] | 100 to 1000
≤ 10 | ≤ 10 | 10 to 100 | 10 to 100 | 10 to 100 | 10 to 100 | COCCOc1cc(F)c2c(Nc3ccc(NC(=O)COCCC(C)C)cc3)ncnc2c1 [Example 47] | ≤ 10
100 to 1000 |  |  | 100 to 1000 | 10 to 100 | 100 to 1000 | COCCOc1cc(F)c2c(Nc3ccc(NC(=O)C(C)NC(=O)CC(C)C)cc3)ncnc2c1 (stereo not shown) [Example 55] | 100 to 1000
10 to 100 | 10 to 100 | 100 to 1000 | 100 to 1000 | 100 to 1000 | 100 to 1000 | COCCOc1cc(F)c2c(Nc3ccc(NC(=O)NCCN4CCCC4=O)cc3)ncnc2c1 [Example 54] | 10 to 100
≤ 10 | ≤ 10 | ≤ 10 | ≤ 10 | 10 to 100 | 10 to 100 | CC(C)(F)CCNC(=O)Nc1ccc(Nc2ncnc3cc(OCCCN4CCCC4)cc(F)c23)cc1 [Example 158] | 10 to 100
10 to 100 |  |  | 100 to 1000 | 10 to 100 | > 1000 | COCCOc1cc(F)c2c(Nc3ccc(NC(=O)CCC4CCOCC4)cc3)ncnc2c1 [Example 63] | 10 to 100
10 to 100 |  |  | 10 to 100 | 10 to 100 | 100 to 1000 | COCCOc1cc(F)c2c(Nc3ccc(NC(=O)CC(=O)NC(C)(C)C)cc3)ncnc2c1 [Example 124] | 10 to 100
10 to 100 |  |  | 100 to 1000 | 10 to 100 | > 1000 | COCCOc1cc(F)c2c(Nc3ccc(NC(=O)COCC4CCOC4)cc3)ncnc2c1 (stereo not shown) [Example 59] | 10 to 100
